ChEMBL document CHEMBL3525955, “Glucuronidation of the red clover isoflavone irilone by liver microsomes from different species and human UDP-glucuronosyltransferases” (Drug Metab Dispos, 2011)

How the values were obtained:
Assay type in all cases: ADME
Liver microsome [1] = assay: Drug metabolism in human liver microsomes assessed as substrate inhibition of IRI-O-4'-monoglucuronide formation incubated for 5 mins prior to UDPGA addition measured after 90 mins by Eadie-Hoftsee plot analysis
Liver microsome [2] = assay: Drug metabolism in human liver microsomes assessed as IRI-O-5-monoglucuronide formation incubated for 5 mins prior to UDPGA addition measured after 90 mins by Eadie-Hoftsee plot analysis; conditions: 1.5 h
[3] = biological target: T1, UDP-glucuronosyltransferase 1A9 (Homo sapiens, UniProt O60656); assay: Substrate inhibition of human recombinant UGT1A9 assessed as IRI-O-5-monoglucuronide formation incubated for 5 mins prior to UDPGA addition measured after 90 mins by Eadie-Hoftsee plot analysis
T1 sequence (O60656 whole entry): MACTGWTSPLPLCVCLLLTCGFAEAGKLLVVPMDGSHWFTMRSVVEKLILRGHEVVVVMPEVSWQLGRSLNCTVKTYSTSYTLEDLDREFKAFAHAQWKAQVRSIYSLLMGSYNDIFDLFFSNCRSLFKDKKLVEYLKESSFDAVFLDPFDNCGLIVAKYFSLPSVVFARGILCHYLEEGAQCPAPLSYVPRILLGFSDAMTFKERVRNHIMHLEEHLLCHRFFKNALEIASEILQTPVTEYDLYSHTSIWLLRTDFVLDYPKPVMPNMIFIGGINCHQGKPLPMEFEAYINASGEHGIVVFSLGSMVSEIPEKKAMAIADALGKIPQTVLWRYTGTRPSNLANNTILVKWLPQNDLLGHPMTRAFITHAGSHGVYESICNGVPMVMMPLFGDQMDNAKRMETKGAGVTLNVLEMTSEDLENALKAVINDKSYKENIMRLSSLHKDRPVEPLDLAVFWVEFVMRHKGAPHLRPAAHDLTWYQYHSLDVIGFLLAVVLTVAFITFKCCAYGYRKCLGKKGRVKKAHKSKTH

[4] = biological target: T2, UDP-glucuronosyltransferase 1A7 (Homo sapiens, UniProt Q9HAW7); assay: Drug metabolism assessed as human recombinant UGT1A7-mediated irilone-O-4'-monoglucuronide formation at 25 uM incubated for 5 mins prior to UDPGA addition measured after 90 mins by HPLC-DAD analysis; conditions: recombinant enzyme, 1.5 h
T2 sequence (Q9HAW7 whole entry): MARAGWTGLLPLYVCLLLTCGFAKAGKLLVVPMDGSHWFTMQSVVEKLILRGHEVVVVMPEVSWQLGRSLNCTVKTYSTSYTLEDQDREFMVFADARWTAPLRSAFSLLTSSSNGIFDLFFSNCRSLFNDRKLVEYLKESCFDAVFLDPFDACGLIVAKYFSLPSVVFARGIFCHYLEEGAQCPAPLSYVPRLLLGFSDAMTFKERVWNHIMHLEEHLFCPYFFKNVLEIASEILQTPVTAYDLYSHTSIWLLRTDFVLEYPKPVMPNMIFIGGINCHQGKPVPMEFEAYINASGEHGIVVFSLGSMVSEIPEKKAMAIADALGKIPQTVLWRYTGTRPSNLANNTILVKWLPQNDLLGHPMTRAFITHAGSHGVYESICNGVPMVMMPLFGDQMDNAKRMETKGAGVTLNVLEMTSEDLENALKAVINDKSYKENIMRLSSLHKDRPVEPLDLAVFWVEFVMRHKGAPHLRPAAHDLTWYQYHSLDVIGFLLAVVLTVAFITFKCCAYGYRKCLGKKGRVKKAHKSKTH

[5] = biological target: T3, UDP-glucuronosyltransferase 1A10 (Homo sapiens, UniProt Q9HAW8); assay: Substrate inhibition of human recombinant UGT1A10 assessed as IRI-O-4'-monoglucuronide formation incubated for 5 mins prior to UDPGA addition measured after 90 mins by Eadie-Hoftsee plot analysis
T3 sequence (Q9HAW8 whole entry): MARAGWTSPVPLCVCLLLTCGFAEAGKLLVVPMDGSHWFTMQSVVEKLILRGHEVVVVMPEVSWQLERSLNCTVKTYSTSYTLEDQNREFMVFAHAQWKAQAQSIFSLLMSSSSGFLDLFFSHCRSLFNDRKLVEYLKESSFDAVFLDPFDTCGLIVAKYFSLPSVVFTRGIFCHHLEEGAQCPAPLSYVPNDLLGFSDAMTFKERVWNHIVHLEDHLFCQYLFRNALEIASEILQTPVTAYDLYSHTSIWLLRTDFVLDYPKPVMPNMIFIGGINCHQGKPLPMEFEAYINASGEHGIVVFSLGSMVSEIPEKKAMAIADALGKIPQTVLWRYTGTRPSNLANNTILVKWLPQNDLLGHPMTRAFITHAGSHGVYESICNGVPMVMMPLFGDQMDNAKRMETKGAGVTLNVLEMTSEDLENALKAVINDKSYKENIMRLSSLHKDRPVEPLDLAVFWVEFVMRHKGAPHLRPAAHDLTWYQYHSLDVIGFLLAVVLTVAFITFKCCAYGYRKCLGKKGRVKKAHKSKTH

[6] = biological target: T4, UDP-glucuronosyltransferase 2B15 (Homo sapiens, UniProt P54855); assay: Drug metabolism assessed as human recombinant UGT2B15-mediated glucuronidation incubated for 5 mins prior to UDPGA addition measured after 90 mins by HPLC-DAD analysis; conditions: recombinant enzyme, 1.5 h
T4 sequence (P54855 whole entry): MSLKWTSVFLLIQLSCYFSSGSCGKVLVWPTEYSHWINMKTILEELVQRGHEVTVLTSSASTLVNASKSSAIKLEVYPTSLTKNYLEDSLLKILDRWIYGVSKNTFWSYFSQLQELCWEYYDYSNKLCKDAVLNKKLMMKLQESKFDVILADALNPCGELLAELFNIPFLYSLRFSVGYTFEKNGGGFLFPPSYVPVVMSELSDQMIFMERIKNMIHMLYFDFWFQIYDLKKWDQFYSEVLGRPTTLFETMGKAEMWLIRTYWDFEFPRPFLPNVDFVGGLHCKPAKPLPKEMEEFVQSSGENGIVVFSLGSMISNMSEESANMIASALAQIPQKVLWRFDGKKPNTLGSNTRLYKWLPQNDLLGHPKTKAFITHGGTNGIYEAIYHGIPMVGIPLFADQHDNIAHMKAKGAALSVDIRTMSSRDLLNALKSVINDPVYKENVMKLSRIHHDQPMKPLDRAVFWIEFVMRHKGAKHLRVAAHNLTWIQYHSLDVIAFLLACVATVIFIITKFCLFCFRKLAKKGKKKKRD

With `O=c1c(-c2ccc(O)cc2)coc2cc3c(c(O)c12)OCO3` as the compound, how does the Ki (Liver microsome [1]) read?
The Ki was 50.9 µM.

And the Km (Liver microsome [2])?
Its Km is 9.8 µM.

What about the Vmax (Liver microsome [2]) of the same compound?
The Vmax was 0.43 nmol/mg/min.

And the Ki [3]?
The Ki was 534 µM.

What about the Drug metabolism [4] of the same compound?
Its Drug metabolism is “metabolite_detected”.

And the Ki [5]?
The Ki was 121 µM.

What about the Drug metabolism [6] of the same compound?
Its Drug metabolism is “metabolite_not_detected”.
